Data taken from the kinase profiling compilation of Christmann-Franck et al. (2016).

Key:
Assay in all cases: KINOMEscan competition binding
Settings in all cases: compound 1.0 µM
MARK1 (human) = MARK1 (human) (UniProt Q9P0L2)
STK17A (human) = STK17A (human) (UniProt Q9UEE5)
PRKAA1 (human) = PRKAA1 (human) (UniProt Q13131)
CDK11B (human) = CDK11B (human) (UniProt P21127)
FRK (human) = FRK (human) (UniProt P42685)
AAK1 (human) = AAK1 (human) (UniProt Q2M2I8)
MAP3K6 (human) = MAP3K6 (human) (UniProt O95382)
STK24 (human) = STK24 (human) (UniProt Q9Y6E0)
MAPK3 (human) = MAPK3 (human) (UniProt P27361)
PIK3CD (human) = PIK3CD (human) (UniProt O00329)
PIK3CD (human), sequence (O00329 whole entry, looked up): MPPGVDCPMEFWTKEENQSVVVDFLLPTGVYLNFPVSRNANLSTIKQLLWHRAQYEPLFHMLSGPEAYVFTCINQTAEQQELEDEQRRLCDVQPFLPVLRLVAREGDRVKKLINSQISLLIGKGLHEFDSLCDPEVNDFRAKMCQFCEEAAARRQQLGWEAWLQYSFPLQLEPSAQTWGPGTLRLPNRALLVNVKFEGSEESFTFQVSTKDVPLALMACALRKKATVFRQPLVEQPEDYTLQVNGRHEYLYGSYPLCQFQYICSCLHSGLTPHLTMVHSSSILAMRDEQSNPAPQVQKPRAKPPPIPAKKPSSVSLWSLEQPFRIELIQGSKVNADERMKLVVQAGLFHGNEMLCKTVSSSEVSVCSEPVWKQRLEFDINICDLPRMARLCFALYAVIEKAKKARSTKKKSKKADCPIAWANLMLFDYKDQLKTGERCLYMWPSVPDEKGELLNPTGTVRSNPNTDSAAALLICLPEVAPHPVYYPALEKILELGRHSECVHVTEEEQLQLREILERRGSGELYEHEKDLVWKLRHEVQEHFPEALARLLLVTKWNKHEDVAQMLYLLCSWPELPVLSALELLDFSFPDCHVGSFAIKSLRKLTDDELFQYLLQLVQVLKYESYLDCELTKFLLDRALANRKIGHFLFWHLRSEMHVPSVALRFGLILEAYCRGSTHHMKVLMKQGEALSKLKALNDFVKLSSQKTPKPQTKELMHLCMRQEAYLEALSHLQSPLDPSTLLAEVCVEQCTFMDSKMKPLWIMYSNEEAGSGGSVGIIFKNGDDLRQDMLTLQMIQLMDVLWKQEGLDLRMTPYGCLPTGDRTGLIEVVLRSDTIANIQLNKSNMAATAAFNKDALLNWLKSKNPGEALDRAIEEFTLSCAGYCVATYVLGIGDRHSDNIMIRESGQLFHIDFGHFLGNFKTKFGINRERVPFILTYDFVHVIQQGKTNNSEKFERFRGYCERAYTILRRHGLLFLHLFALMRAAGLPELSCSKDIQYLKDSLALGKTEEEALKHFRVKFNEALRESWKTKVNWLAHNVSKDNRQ

PLK4 (human) = PLK4 (human) (UniProt O00444)
PIM2 (human) = PIM2 (human) (UniProt Q9P1W9)
PIM2 (human), sequence (Q9P1W9 whole entry, looked up): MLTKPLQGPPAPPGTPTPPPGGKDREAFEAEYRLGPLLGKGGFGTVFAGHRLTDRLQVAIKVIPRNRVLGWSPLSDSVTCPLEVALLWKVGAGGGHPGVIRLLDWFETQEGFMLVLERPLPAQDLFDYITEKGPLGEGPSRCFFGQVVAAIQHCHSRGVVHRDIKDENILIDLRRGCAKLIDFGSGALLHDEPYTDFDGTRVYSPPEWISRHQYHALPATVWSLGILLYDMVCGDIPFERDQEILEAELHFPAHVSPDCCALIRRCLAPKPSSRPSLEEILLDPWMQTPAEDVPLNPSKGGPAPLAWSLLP

STK38 (human) = STK38 (human) (UniProt Q15208)
PRKCH (human) = PRKCH (human) (UniProt P24723)
PRKCH (human), sequence (P24723 whole entry, looked up): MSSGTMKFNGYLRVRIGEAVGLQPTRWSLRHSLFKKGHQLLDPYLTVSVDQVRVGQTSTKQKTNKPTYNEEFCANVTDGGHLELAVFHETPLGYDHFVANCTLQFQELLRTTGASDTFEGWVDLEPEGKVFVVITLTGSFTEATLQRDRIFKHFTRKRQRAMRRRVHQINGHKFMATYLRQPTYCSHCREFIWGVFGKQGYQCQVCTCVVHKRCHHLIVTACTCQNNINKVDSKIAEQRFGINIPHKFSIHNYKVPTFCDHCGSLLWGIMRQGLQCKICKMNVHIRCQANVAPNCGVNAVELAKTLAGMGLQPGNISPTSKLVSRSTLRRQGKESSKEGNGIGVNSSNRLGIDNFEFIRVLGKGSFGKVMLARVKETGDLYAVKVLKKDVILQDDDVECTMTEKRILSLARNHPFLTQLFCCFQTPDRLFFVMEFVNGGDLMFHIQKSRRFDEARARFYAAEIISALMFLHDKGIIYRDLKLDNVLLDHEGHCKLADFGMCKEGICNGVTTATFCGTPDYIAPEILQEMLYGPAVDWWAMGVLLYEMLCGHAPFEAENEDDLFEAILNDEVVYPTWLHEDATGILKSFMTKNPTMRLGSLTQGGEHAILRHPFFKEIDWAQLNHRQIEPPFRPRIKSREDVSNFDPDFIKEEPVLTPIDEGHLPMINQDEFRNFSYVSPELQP

MARK4 (human) = MARK4 (human) (UniProt Q96L34)
[1] = tested on: PIK3CA (human), P42336 [C420R]
PIK3CA (human), P42336 [C420R], sequence (P42336 whole entry C420R, looked up): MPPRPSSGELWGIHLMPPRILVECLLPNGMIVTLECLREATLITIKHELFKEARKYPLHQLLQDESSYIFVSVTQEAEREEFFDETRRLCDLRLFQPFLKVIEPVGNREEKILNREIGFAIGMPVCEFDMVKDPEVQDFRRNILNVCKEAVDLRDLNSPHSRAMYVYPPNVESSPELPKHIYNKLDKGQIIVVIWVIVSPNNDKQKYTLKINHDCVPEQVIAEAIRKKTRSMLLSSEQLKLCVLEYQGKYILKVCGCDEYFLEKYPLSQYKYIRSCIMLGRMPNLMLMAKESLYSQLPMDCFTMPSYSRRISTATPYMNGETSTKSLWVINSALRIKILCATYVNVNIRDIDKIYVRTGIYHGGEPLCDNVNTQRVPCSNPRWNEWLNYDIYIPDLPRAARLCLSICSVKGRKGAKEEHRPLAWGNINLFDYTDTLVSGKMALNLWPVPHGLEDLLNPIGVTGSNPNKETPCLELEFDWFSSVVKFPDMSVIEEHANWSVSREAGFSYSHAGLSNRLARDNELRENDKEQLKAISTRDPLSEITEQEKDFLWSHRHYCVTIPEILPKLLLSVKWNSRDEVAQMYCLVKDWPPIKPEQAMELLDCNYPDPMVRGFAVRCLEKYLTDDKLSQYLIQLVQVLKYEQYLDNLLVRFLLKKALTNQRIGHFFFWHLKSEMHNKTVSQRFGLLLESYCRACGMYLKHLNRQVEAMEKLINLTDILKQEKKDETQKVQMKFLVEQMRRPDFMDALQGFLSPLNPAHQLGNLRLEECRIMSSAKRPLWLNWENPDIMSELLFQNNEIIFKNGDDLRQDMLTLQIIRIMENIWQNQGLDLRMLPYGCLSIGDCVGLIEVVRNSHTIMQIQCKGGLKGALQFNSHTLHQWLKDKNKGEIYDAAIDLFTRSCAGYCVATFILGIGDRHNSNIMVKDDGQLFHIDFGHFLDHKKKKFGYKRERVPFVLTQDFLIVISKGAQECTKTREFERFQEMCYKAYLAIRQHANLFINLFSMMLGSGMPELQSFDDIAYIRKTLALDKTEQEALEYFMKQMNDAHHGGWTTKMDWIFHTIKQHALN

TAOK1 (human) = TAOK1 (human) (UniProt Q7L7X3)
PRKD3 (human) = PRKD3 (human) (UniProt O94806)
SIK1 (human) = SIK1 (human) (UniProt P57059)
RIPK2 (human) = RIPK2 (human) (UniProt O43353)
SYK (human) = SYK (human) (UniProt P43405)
[2] = tested on: EGFR (human), P00533 [L858R]
BMPR1A (human) = BMPR1A (human) (UniProt P36894)
ROCK1 (human) = ROCK1 (human) (UniProt Q13464)
MAP2K5 (human) = MAP2K5 (human) (UniProt Q13163)
EPHA3 (human) = EPHA3 (human) (UniProt P29320)
RPS6KA6 KD1 (human) = RPS6KA6 KD1 (human) (UniProt Q9UK32)
IRAK3 (human) = IRAK3 (human) (UniProt Q9Y616)
ERBB3 (human) = ERBB3 (human) (UniProt P21860)
ERBB2 (human) = ERBB2 (human) (UniProt P04626)
[3] = tested on: FLT3 (human), P36888 [K663Q]
[4] = tested on: EGFR (human), P00533 [A750P; 747-749 del]
FGFR4 (human) = FGFR4 (human) (UniProt P22455)
FGFR4 (human), sequence (P22455 whole entry, looked up): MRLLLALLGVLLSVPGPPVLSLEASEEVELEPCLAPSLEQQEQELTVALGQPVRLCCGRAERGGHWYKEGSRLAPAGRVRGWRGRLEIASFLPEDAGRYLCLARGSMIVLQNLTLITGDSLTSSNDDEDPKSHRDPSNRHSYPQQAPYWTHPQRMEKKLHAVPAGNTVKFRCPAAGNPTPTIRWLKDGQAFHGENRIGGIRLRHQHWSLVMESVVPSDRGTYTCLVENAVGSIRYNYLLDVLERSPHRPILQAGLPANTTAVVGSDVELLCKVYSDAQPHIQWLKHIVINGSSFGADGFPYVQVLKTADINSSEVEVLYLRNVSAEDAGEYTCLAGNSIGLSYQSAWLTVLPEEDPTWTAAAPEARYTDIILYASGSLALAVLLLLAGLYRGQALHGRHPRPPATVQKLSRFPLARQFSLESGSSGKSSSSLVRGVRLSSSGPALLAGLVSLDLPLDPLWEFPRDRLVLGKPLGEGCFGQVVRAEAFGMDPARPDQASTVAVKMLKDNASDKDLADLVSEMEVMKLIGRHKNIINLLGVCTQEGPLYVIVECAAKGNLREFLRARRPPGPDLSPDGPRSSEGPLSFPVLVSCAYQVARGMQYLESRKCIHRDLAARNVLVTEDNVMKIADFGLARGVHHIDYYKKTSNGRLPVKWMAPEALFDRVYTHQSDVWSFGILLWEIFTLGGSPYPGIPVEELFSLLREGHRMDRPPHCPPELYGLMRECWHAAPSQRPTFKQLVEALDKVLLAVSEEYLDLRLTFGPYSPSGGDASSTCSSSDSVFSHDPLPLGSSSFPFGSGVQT

INSRR (human) = INSRR (human) (UniProt P14616)
BMPR2 (human) = BMPR2 (human) (UniProt Q13873)
MAP2K6 (human) = MAP2K6 (human) (UniProt P52564)
SIK2 (human) = SIK2 (human) (UniProt Q9H0K1)
NTRK3 (human) = NTRK3 (human) (UniProt Q16288)
[5] = tested on: PIK3CA (human), P42336 [Q546K]
PIK3CA (human), P42336 [Q546K], sequence (P42336 whole entry Q546K, looked up): as the sequence (P42336 whole entry C420R, looked up) above, with R420C, Q546K counted along it

PLK1 (human) = PLK1 (human) (UniProt P53350)
PLK3 (human) = PLK3 (human) (UniProt Q9H4B4)
PLK3 (human), sequence (Q9H4B4 whole entry, looked up): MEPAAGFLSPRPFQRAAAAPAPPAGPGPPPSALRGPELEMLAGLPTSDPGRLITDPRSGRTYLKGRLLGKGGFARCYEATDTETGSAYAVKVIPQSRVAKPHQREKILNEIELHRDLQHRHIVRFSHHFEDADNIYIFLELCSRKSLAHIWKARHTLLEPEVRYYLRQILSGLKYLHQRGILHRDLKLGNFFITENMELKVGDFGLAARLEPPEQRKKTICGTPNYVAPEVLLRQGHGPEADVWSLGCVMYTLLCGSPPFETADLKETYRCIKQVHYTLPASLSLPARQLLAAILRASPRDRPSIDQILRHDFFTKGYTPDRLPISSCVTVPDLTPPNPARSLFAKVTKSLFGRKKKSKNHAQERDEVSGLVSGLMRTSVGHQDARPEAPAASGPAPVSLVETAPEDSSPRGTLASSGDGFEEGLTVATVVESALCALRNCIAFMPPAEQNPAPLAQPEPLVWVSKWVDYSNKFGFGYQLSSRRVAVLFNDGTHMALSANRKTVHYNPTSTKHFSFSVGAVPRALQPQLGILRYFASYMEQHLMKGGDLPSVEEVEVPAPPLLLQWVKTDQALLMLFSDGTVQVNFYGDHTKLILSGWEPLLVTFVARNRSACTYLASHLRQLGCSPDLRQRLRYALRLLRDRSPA

PIK3CG (human) = PIK3CG (human) (UniProt P48736)
PRKX (human) = PRKX (human) (UniProt P51817)
PRKX (human), sequence (P51817 whole entry, looked up): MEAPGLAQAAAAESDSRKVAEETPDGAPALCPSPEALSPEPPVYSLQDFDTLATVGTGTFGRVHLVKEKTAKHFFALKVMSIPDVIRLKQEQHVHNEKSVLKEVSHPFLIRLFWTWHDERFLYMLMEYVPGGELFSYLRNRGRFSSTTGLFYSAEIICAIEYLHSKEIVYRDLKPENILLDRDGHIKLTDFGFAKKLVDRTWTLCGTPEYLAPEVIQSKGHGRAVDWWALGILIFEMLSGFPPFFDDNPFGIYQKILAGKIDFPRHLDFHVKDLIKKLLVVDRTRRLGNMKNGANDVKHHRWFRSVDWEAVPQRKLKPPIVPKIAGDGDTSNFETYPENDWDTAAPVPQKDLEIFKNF

COCCNCCCn1c(C(=O)CF)c(-c2ccc(C)cc2)c2c(N)ncnc21
kinase still bound, per cent of control (MARK1 (human)): 90%
kinase still bound, per cent of control (STK17A (human)): 98%
kinase still bound, per cent of control (PRKAA1 (human)): 100%
kinase still bound, per cent of control (CDK11B (human)): 100%
kinase still bound, per cent of control (FRK (human)): 81%
kinase still bound, per cent of control (AAK1 (human)): 95%
kinase still bound, per cent of control (MAP3K6 (human)): 100%
kinase still bound, per cent of control (STK24 (human)): 78%
kinase still bound, per cent of control (MAPK3 (human)): 98%
kinase still bound, per cent of control (PIK3CD (human)): 100%
kinase still bound, per cent of control (PLK4 (human)): 100%
kinase still bound, per cent of control (PIM2 (human)): 99%
kinase still bound, per cent of control (STK38 (human)): 100%
kinase still bound, per cent of control (PRKCH (human)): 100%
kinase still bound, per cent of control (MARK4 (human)): 74%
kinase still bound, per cent of control [1]: 100%
kinase still bound, per cent of control (TAOK1 (human)): 100%
kinase still bound, per cent of control (PRKD3 (human)): 100%
kinase still bound, per cent of control (SIK1 (human)): 98%
kinase still bound, per cent of control (RIPK2 (human)): 39%
kinase still bound, per cent of control (SYK (human)): 96%
kinase still bound, per cent of control [2]: 62%
kinase still bound, per cent of control (BMPR1A (human)): 100%
kinase still bound, per cent of control (ROCK1 (human)): 98%
kinase still bound, per cent of control (MAP2K5 (human)): 46%
kinase still bound, per cent of control (EPHA3 (human)): 88%
kinase still bound, per cent of control (RPS6KA6 KD1 (human)): 90%
kinase still bound, per cent of control (IRAK3 (human)): 86%
kinase still bound, per cent of control (ERBB3 (human)): 96%
kinase still bound, per cent of control (ERBB2 (human)): 100%
kinase still bound, per cent of control [3]: 100%
kinase still bound, per cent of control [4]: 67%
kinase still bound, per cent of control (FGFR4 (human)): 100%
kinase still bound, per cent of control (INSRR (human)): 100%
kinase still bound, per cent of control (BMPR2 (human)): 72%
kinase still bound, per cent of control (MAP2K6 (human)): 97%
kinase still bound, per cent of control (SIK2 (human)): 82%
kinase still bound, per cent of control (NTRK3 (human)): 91%
kinase still bound, per cent of control [5]: 100%
kinase still bound, per cent of control (PLK1 (human)): 100%
kinase still bound, per cent of control (PLK3 (human)): 91%
kinase still bound, per cent of control (PIK3CG (human)): 100%
kinase still bound, per cent of control (PRKX (human)): 80%
